Laboratory results reported in EP0889878B1 (Merck Frosst Canada & Co., priority 1996, dated 1997).

Experiments:
[1] = molecular target: T1, COX-1 (Homo sapiens, UniProt P23219); assay: Whole cell cyclooxygenase assay in U-937 cells (COX-1, inhibition of PGE2 production); format: cell-based
T1 construct: human U-937 cells (which specifically express COX-1); endogenous in cells; host or cells: human U-937 cells
Method: Compounds are tested as inhibitors of cyclooxygenase activity in whole cell cyclooxygenase assays. Both of these assays measure prostaglandin E2 synthesis in response to arachidonic acid, using a radioimmunoassay. Cells used for these assays are human osteosarcoma 143 cells (which specifically express COX-2) and human U-937 cells (which specifically express COX-1). In these assays, 100% activity is defined as the difference between prostaglandin E2 synthesis in the absence and presence of arachidonate.
For cyclooxygenase assays, osteosarcoma cells are cultured in 1 mL of media in 24-well multidishes (Nunclon) until confluent (1-2 x 10^5 cells/well). U-937 cells are grown in spinner flasks and resuspended to a final density of 1.5 x 10^6 cells/mL in 24-well multidishes (Nunclon). Following washing and resuspension of osteosarcoma and U-937 cells in 1 mL of HBSS, 1 µL of a DMSO solution of test compound or DMSO vehicle is added, and samples gently mixed. All assays are performed in triplicate. Samples are then incubated for 5 or 15 minutes at 37C, prior to the addition of arachidonic acid. Arachidonic acid (peroxide-free, Cayman Chemical) is prepared as a 10 mM stock solution in ethanol and further diluted 10-fold in HBSS. An aliquot of 10 µL of this diluted solution is added to the cells to give a final arachidonic acid concentration of 10 µM. Control samples are incubated with ethanol vehicle instead of arachidonic acid. Samples are again gently mixed and incubated for a further 10 min. at 37C. For osteosarcoma cells, reactions are then stopped by the addition of 100 µL of 1N HCl, with mixing and by the rapid removal of the solution from cell monolayers. For U-937 cells, reactions are stopped by the addition of 100 µL of IN HCl, with mixing. Samples are then neutralized by the addition of 100 µL of 1N NaOH and PGE2 levels measured by radioimmunoassay.
In the assay, inhibition is determined by measuring the amount of prostaglandin E2 (PGE2) synthesized in the presence of arachidonic acid, COX-1 or COX-2 and a putative inhibitor.
The results for inhibition of PGE2 production may be seen in Table 7.

[2] = molecular target: T2, COX-2 (Homo sapiens, UniProt P35354); assay: Whole cell assay for COX-2 using CHO transfected cell lines (inhibition of PGE2 production); format: cell-based
T2 construct: expressed in transfected cells; host or cells: CHO cells stably transfected with pCDNAIII (CHO[hCOX-2])
T2 sequence (P35354 18-604): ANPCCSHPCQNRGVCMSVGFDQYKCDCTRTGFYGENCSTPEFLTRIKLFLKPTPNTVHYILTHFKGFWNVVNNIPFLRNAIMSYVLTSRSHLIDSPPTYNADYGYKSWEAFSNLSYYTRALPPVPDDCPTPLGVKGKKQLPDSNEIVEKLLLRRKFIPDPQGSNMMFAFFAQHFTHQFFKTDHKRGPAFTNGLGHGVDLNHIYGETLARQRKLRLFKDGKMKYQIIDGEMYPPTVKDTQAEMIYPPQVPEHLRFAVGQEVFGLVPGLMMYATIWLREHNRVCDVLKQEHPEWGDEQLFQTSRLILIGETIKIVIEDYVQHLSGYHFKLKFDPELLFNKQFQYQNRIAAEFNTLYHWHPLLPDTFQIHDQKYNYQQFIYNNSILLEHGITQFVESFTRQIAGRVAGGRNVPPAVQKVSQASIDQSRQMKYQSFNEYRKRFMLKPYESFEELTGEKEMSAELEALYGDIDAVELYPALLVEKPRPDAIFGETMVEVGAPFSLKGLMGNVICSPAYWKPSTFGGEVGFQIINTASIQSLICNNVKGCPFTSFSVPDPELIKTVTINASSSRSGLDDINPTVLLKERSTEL
Method: Chinese hamster ovary (CHO) cell lines which have been stably transfected with an eukaryotic expression vector pCDNAIII containing either the human COX-1 or COX-2 cDNA's are used for the assay. These cell lines are referred to as CHO [hCOX-1] and CHO [hCOX-2], respectively. For cyclooxygenase assays, CHO[hCOX-1] cells from suspension cultures and CHO[hCOX-2] cells prepared by trypsinization of adherent cultures are harvested by centrifugation (300 x g, 10 min) and washed once in HBSS containing 15 mM HEPES, pH 7.4, and resuspended in HBSS, 15 mM HEPES, pH 7.4, at a cell concentration of 1.5 x 10^6 cells/ml. […] Cells are then challenged in the presence or absence of drug with the AA/HBSS solution to yield a final concentration of 0.5 µM AA in the CHO[hCOX-1] assay and a final concentration of 10 µM AA in the CHO[hCOX-2] assay. […] Cyclooxygenase activity in the absence of test compounds is determined as the difference in PGE2 levels of cells challenged with arachidonic acid versus the PGE2 levels in cells mock-challenged with ethanol vehicle. Inhibition of PGE2 synthesis by test compounds is calculated as a percentage of the activity in the presence of drug versus the activity in the positive control samples.
In the assay, inhibition is determined by measuring the amount of prostaglandin E2 (PGE2) synthesized in the presence of arachidonic acid, COX-1 or COX-2 and a putative inhibitor. […]

T1 sequence (P23219 24-599): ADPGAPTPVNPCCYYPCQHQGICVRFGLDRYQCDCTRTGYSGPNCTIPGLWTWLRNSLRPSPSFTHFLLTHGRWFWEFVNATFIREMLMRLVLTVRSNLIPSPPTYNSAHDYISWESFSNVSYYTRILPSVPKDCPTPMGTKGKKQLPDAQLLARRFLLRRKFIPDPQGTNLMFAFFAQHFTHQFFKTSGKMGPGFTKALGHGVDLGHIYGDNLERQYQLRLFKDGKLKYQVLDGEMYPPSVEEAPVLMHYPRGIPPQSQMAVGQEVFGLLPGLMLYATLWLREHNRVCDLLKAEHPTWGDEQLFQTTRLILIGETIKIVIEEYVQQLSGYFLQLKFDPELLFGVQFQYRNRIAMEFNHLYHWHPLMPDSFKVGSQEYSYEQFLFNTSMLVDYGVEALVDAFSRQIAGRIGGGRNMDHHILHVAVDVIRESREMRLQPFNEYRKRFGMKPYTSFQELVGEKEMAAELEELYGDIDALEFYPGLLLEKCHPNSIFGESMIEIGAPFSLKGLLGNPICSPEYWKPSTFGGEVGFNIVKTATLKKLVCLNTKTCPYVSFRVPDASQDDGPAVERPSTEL

| IC50 [1] [µM] | Structure (SMILES) | IC50 [2] [µM] |
| --- | --- | --- |
| 1.1 | CC1(C)C(=O)C(c2ccc(S(C)(=O)=O)cc2)=C1c1ccccc1 [Example 30, 4,4-dimethyl-2-(4-methylsulfonylphenyl)-3-phenyl-2-cyclobuten-1-one] |  |
| 1 | C=C1CC(c2ccc(S(C)(=O)=O)cc2)=C1c1ccccc1 [Example 39, 3-Methylene-1-(4-methylsulfonylphenyl)-2-phenyl-1-cyclobutene] |  |
| 2 | CC1(c2ccsc2)C(=O)C(c2ccccc2)=C1c1ccc(S(C)(=O)=O)cc1 (stereo not drawn) [Example 6, 4-Methyl-3-(4-methylsulfonylphenyl)-2-phenyl-4-(3-thienyl)-2-cyclobuten-1-one] | 0.025 |

| Structure (SMILES) | IC50 [1] [µM] | IC50 [2] [µM] |
| --- | --- | --- |
| C/C(CO)=C1\CC(c2ccc(S(C)(=O)=O)cc2)=C1c1ccccc1 [Example 42] | 1.5 | 0.022 |
